Reference: patent publication EP0394112A2, “Use of dipyrido(4,3-b)(3,4-f) indoles for the preparation of medicaments for the treatment of AIDS” (INSTITUT NATIONAL DE LA SANTE ET DE LA RECHERCHE MEDICALE …, priority 1989, dated 1990)
Like-named read-outs stand apart in the source and are kept apart here.

How the values were obtained:
[1] = target: T1, transcriptase inverse du virus HIV 1 (Human immunodeficiency virus type 1 group M subtype B, UniProt P04585); test: Reverse transcriptase assay (direct enzyme inhibition, synthetic primer, 3H-labelled substrate); format: biochemical; settings: figure 1
T1 construct: transcriptase inverse du virus HIV 1
Source text: Le trichlorhydrate de BD 40 (sel ci-après appelé "BD 40"), obtenu par réaction de la base BD 40 en phase aqueuse avec une solution aqueuse d'acide chlorhydrique, a été testé dans un premier temps en tant qu'inhibiteur direct sur l'activité enzymatique de la transcriptase inverse du virus HIV 1.
L'activité enzymatique a été testée en utilisant une amorce synthétique et un substrat radiomarqué au H³ "in vitro" en présence de différentes doses du BD 40. La quantité de matériel radiomarqué précipité, exprimée en coups par minute, est proportionnelle à l'activité de la transcriptase inverse.
Les résultats obtenus figurent sur le graphe de la figure 1, sur laquelle on a porté en ordonnées, la quantité de matériel radiomarqué en coups par minute (RT en cpm) et en abscisses les quantités de BD 40 testées.

[2] = tested on: virus HIV 1; test: Infectivity test on PHA-stimulated peripheral lymphocytes (viral production followed by RT activity); format: cell-based; settings: 12,5 ng/ml
Source text: Les lymphocytes obtenus après stimulation à la PHA (Phytohémagglutinine) de cellules issues d'une cytaphérèse, ont été infectés par une dilution appropriée de virus HIV 1 afin d'obtenir un pic de production virale aux environs du quinzième jour après infection. Différentes doses du BD 40 ont été ajoutées au milieu de culture au moment de l'infection et pendant toute la culture afin de déterminer les doses toxiques et protectrices.
Pour déterminer le mécanisme d'action du composé, celui-ci a été ajouté à la culture soit pendant une période de préincubation des cellules avant infection, soit pendant toute la période de culture suivant l'infection.
Le suivi de la production virale des lymphocytes a été réalisé par dosage de l'activité de la transcriptase inverse dans la culture tous les 3 ou 4 jours.
Les résultats obtenus, avec le BD 40 à la concentration de 12,5 ng/ml, figurent sur les différentes courbes de la figure 2 qui expriment l'activité de la transcriptase inverse (RT en ordonnées) en fonction du temps en jours. • Fig. 2a : BD 40 ajouté pendant la période de préincubation des cellules avant infection. • Fig. 2b : BD 40 ajouté pendant la culture qui suit l'infection. • Fig. 2c : BD 40 ajouté à la culture, uniquement après l'infection. • Fig. 2d : Pas de BD 40. Contrôle HIV 1.

[3] = tested on: virus HIV; format: cell-based, virus HIV 1; settings: for production virale des lymphocytes périphériques infectés: added at the time of infection, figure 3
Source text: Ce test a été réalisé comme suit.
Les lymphocytes humains ont été isolés sur gradient de Ficoll à partir du sang périphérique d'un donneur séronégatif. Préalablement au traitement, ils ont été stimulés par la phytohémagglutinine p (PHA-p) (Difco) pendant 3 jours. Ils sont ensuite maintenus en culture dans un milieu RPMI sans glutamine (GIBCO, Réf. 041.01870M, contenant 10 % de sérum de veau fétal (FLOW, Réf. 29.101.711), 1 % de glutamine (GIBCO, Réf. 043.05030H), 1 % d'une solution d'antibiotiques (GIBCO, PSN, Réf. 043.05640H), 10 % d'une solution d'interleukine 2 (BIOTEST, Réf. 81.1020), et […] de polybrène (SIGMA, Réf. 36F.3686 P. 4515).
Du trichlorhydrate de BD 40 (sel ci-après appelé BD 40) est ajouté aux doses non toxiques de 3,2 jusqu'à 25 ng/ml en même temps que l'infection virale. La production du virus dans le surnageant est mesurée par l'activité réverse transcriptase après concentration des cellules infectées par centrifugation.
Les résultats obtenus figurent sur les courbes de la figure 3 qui donne l'activité de transcriptase inverse (RT en ordonnées) en fonction du temps pour des quantités données de BD 40.

[4] = tested on: virus HIV 1; format: cell-based
Source text: Les macrophages ont été isolés à partir du sang périphérique par adhérence. On les a infectés par du virus HIV 1 (de 5000 à 25000 cpm (RT en cpm par ml)). 3 à 7 jours après, les macrophages ont été éclatés par congélation/décongélation et le virus a été révélé par une coculture avec une lignée lymphoblastoïde (CEM ou lymphocytes du sang périphérique).
Différentes doses de trichlorhydrate de BD 40 (ci-après BD 40) ont été testées, le produit étant ajouté au milieu de culture au moment de l'infection.

[5] = target: T2, réverse transcriptase du virus HIV (Human immunodeficiency virus type 1 group M subtype B, UniProt P04585); test: Clinical trial: reverse transcriptase activity in blood cells of treated AIDS patients; format: in vivo
T2 construct: mesures de l'activité réverse transcriptase (RT) dans les cellules sanguines; from tissue; host or cells: blood cells of AIDS patients treated with BD 40
Description: Lors d'un essai clinique chez 12 malades souffrant d'un SIDA avéré avec sarcome de Kaposi traités par des injections de trichlorhydrate de BD 40 en perfusion à des doses comprises entre 50 et 300 mg/m²/jour par cures de 3 jours consécutifs à intervalles de 3 semaines, des mesures de l'activité réverse transcriptase (RT) dans les cellules sanguines ont été pratiquées avant administration et aux 4e et 15e jours après le début de chaque cure.
La technique de mesure est la même que celle utilisée dans les tests II et III ci-dessus. Les résultats obtenus sont les suivants : - 8 cures sont évaluables à l'égard des critères adoptés, c'est-à-dire dans la mesure où l'activité réverse transcriptase a été mesurable pour le malade considéré et où sa valeur au jour 4 de la cure est encadrée par des valeurs connues au jour 15 de la cure précédente et au jour 15 de la cure considérée; - sur ces 8 cures évaluables, dans 7 cas la valeur au jour 4 est inférieure aux valeurs qui l'encadrent indiquant l'existence d'un inhibition nette de la réverse transcriptase; - sur ces 7 cas, dans 4 d'entre eux l'activité réverse transcriptase est ramenée à 0 (ou à une valeur négligeable, non significativement différente de 0); - sur ces 7 cas, si l'on normalise les valeurs obtenues en les exprimant en % de la valeur la plus élevée mesurée pour le malade considéré, les moyennes obtenues sont les suivantes : - RT au J15 de la cure précédente : 72,3 - RT au J4 de la […] : 9,7 - RT au J15 de la cure considérée : 62,4 l'inhibition est donc très évidente au 4e jour de la cure; - ces 7 cas sont obtenus aux doses suivantes (en mg/m2/administration) 2 fois à 50, 3 fois à 200, 1 fois à 250 et 1 fois à 300.

[6] = tested on: lignée cellulaire murine D55; settings: 24 h treatment, D55 cells; read-out: concentrations affecting viabilité et morphologie des cellules de manière irréversible; cited from earlier work
[7] = tested on: fibroblastes murins NIH - 3T3; settings: 24 h treatment, NIH - 3T3 fibroblasts; read-out: concentrations affecting viabilité et morphologie des cellules de manière irréversible; cited from earlier work
[8] = mean of 7 cases, normalised values

Structure (SMILES): CCN(CC)CCCNc1nccc2c(C)c3[nH]c4ccncc4c3cc12 [BD 40]
- activité de la transcriptase inverse du virus HIV ([1]; BD 40 concentrations 1 mg/ml to 50 µg/ml): totalement inhibée
- activité de l'enzyme ([1]; from BD 40 concentration 5 µg/ml): du même niveau qu'en l'absence d'inhibiteur
- production virale de lymphocytes infectés ([2]; added to the culture only after infection (Fig. 2c)): un pic de production virale qui reste d'un niveau plus faible que le pic obtenu en l'absence d'inhibiteur
- production virale de lymphocytes infectés ([2]; present also during the culture after infection (Fig. 2b)): Le même résultat
- production virale de lymphocytes infectés ([2]; present during 1 h preincubation before infection (Fig. 2a)): inhiber totalement la production virale
- toxicity of doses for the lymphocyte culture [3]: non toxiques
- production virale des lymphocytes périphériques infectés ([3]; 25 ng/ml to 6,25 ng/ml): inhibition très importante
- production virale des lymphocytes périphériques infectés ([3]; 3,12 ng/ml): un pic de production virale apparait d'un niveau inférieur à celui obtenu en l'absence d'inhibiteur
- virus produit ([3]; highest non-toxic doses, up to day 42): absence totale de virus produit jusqu'au jour 42
- toxicity of doses for the macrophage culture [4]: non toxiques
- retard d'apparition du virus ([4]; 10 and 15 ng/ml, added at the time of infection): 2 jours
- réplication du virus ([4]; macrophages treated with BD 40, RT activity after coculture): inhibition partielle
- clinical tolerance of the doses ([5]; 50, 200, 250 and 300 mg/m2/administration, patients): cliniquement parfaitement tolérées
- RT au J4 de la cure précédente [5, 8]: 9,7 % de la valeur la plus élevée mesurée pour le malade considéré
- RT au J15 de la cure considérée [5, 8]: 62,4 % de la valeur la plus élevée mesurée pour le malade considéré
- RT au J15 de la cure précédente [5, 8]: 72,3 % de la valeur la plus élevée mesurée pour le malade considéré
- cas où la valeur au jour 4 est inférieure aux valeurs qui l'encadrent (inhibition nette de la réverse transcriptase) ([5]; out of 8 evaluable courses, patients with AIDS and Kaposi sarcoma, infusion 50-300 mg/m²/jour, 3-day courses every 3 weeks): 7 cas
- cas où l'activité réverse transcriptase est ramenée à 0 (ou à une valeur négligeable) ([5]; out of the 7 cases with inhibition): 4
- MCC [6]: ≥ 100 nM
- MCC [7]: ≥ 100 nM
